Data taken from patent publication US11484607B2, “PSMA-targeted NIR dyes and their uses” (On Target Laboratories, LLC, priority 2015, dated 2022).

Target: T1, PSMA (Homo sapiens, UniProt Q04609)
T1 construct: host or cells: 22Rv1 human prostate cancer cells
Assay: Relative binding affinity of DUPA-NIR conjugates with respect to DUPA-FITC on 22Rv1 cells, flow cytometry
Conditions: for Kd: 1 h at 37° C., 100 nM DUPA-FITC; for affinity for PSMA (in words): in vitro binding affinity data
Protocol: (§1) FIG. 3—Relative binding affinities of DUPA-NIR conjugates 1-9 with respect to DUPA-FITC (14). PSMA-positive 22Rv1 human prostate cancer cells were incubated for 1 h at 37° C. in the presence of 100 nM DUPA-FITC with increasing concentrations of DUPA-NIR conjugates. […] Cell bound fluorescence was assayed as using flow cytometry.
as §1, with “6—Relative” for “3—Relative”, “with aromatic amino acids linkers” for “1-9”
as §1, with “3 Relative” for “3—Relative”
in vitro studies. […] PSMA-positive 22Rv1 human prostate cancer cells were incubated for 1 h at 37° C. in the presence of 100 nM DUPA-FITC with increasing concentrations of DUPA-NIR conjugates. […] Cell bound fluorescence was assayed as using flow cytometry.
PSMA-positive 22Rv1 human prostate cancer cells were incubated for 1 h at 37° C. in the presence of 100 nM DUPA-FITC with increasing concentrations of DUPA-NIR conjugates. […] Cell bound fluorescence was assayed as using flow cytometry.
as §1, with “24: Relative” for “3—Relative”, “conjugates” for “conjugates 1-9”
PSMA-positive 22Rv1 human prostate cancer cells were incubated for 1 h at 37° C. in the presence of 100 nM DUPA-FITC with increasing concentrations of DUPA-NIR conjugates. […] Cell bound fluorescence was assayed as using flow cytometry
Cancer cells were incubated for 1 h at 37° C. in the presence of 100 nM DUPA-FITC with increasing concentrations of compound 15. […] Cell bound fluorescence was assayed as using flow cytometry.

[1] = conjugates with variable length spacers
[2] = conjugates with aromatic linkers
[3] = Example 5, variably charged NIR dye

T1 sequence (Q04609 whole entry): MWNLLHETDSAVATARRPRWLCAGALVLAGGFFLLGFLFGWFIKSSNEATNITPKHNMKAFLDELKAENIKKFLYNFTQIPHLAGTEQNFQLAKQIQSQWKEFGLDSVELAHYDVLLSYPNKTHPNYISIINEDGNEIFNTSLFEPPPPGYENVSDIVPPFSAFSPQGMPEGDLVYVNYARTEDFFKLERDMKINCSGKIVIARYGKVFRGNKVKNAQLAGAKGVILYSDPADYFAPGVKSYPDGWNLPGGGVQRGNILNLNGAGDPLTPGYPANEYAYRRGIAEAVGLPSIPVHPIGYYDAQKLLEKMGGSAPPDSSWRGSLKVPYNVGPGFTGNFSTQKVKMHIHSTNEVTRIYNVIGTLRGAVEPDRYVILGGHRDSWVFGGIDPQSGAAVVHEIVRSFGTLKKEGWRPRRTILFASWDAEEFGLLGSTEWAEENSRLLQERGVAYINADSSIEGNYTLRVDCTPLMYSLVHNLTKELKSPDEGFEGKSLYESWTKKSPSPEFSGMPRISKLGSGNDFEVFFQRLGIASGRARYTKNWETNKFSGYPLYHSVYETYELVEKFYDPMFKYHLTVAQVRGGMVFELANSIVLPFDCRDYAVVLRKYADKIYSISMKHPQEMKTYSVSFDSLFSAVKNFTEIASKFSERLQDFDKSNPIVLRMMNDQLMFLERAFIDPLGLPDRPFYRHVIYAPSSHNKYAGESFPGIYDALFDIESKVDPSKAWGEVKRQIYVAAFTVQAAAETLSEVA

Structure (SMILES)	Kd [1] [nM]	affinity for PSMA (in words)	further results
CC1(C)C(/C=C/C2=C(Oc3ccc(C[C@H](NC(=O)CC[C@H](NC(=O)N[C@@H](CCC(=O)O)C(=O)O)C(=O)O)C(=O)O)cc3)C(=C/C=C3/N(CCCCS(=O)(=O)O)c4ccc(S(=O)(=O)O)cc4C3(C)C)/CCC2)=[N+](CCCCS(=O)(=O)[O-])c2ccc(S(=O)(=O)O)cc21 [Compound 1]	142	low affinity	–
CC1(C)C(/C=C/C2=C(Oc3ccc(CCNC(=O)CC[C@H](NC(=O)N[C@@H](CCC(=O)O)C(=O)O)C(=O)O)cc3)C(=C/C=C3/N(CCCCS(=O)(=O)O)c4ccc(S(=O)(=O)O)cc4C3(C)C)/CCC2)=[N+](CCCCS(=O)(=O)[O-])c2ccc(S(=O)(=O)O)cc21 [Compound 2]	113	low affinity	–
CC1(C)C(/C=C/C2=C(Oc3ccc(C[C@H](NC(=O)C[C@H](NC(=O)CC[C@H](NC(=O)N[C@@H](CCC(=O)O)C(=O)O)C(=O)O)C(=O)O)C(=O)O)cc3)C(=C/C=C3/N(CCCCS(=O)(=O)O)c4ccc(S(=O)(=O)O)cc4C3(C)C)/CCC2)=[N+](CCCCS(=O)(=O)[O-])c2ccc(S(=O)(=O)O)cc21 [Compound 3]	9.71	very high affinity	–
CC1(C)C(/C=C/C2=C(Oc3ccc(C[C@H](NC(=O)CCCCCCCNC(=O)[C@H](Cc4ccccc4)NC(=O)CC[C@H](NC(=O)N[C@@H](CCC(=O)O)C(=O)O)C(=O)O)C(=O)O)cc3)C(=C/C=C3/N(CCCCS(=O)(=O)O)c4ccc(S(=O)(=O)O)cc4C3(C)C)/CCC2)=[N+](CCCCS(=O)(=O)[O-])c2ccc(S(=O)(=O)O)cc21 [Compound 5]	12.2	very high affinity	–
CC1(C)C(/C=C/C2=C(Oc3ccc(C[C@H](NC(=O)[C@H](Cc4ccccc4)NC(=O)[C@H](Cc4ccccc4)NC(=O)CCCCCCCNC(=O)C[C@H](NC(=O)CC[C@H](NC(=O)N[C@@H](CCC(=O)O)C(=O)O)C(=O)O)C(=O)O)C(=O)O)cc3)C(=C/C=C3/N(CCCCS(=O)(=O)O)c4ccc(S(=O)(=O)O)cc4C3(C)C)/CCC2)=[N+](CCCCS(=O)(=O)[O-])c2ccc(S(=O)(=O)O)cc21 [Compound 8]	23.2	–	–
CC1(C)C(/C=C/C2=C(SC[C@H](NC(=O)[C@H](Cc3ccccc3)NC(=O)[C@H](Cc3ccccc3)NC(=O)CCCCCCCNC(=O)CC[C@H](NC(=O)N[C@@H](CCC(=O)O)C(=O)O)C(=O)O)C(=O)O)C(=C/C=C3/N(CCCCS(=O)(=O)O)c4ccc(S(=O)(=O)O)cc4C3(C)C)/CCC2)=[N+](CCCCS(=O)(=O)[O-])c2ccc(S(=O)(=O)O)cc21 [Compound 27]	–	–	Kd [2]: 22.2 nM
CC1(C)C(/C=C/C2=C(Oc3ccc(C[C@H](NC(=O)[C@H](Cc4c[nH]cn4)NC(=O)CCCCCCCNC(=O)CC[C@H](NC(=O)N[C@@H](CCC(=O)O)C(=O)O)C(=O)O)C(=O)O)cc3)C(=C/C=C3/N(CCCCS(=O)(=O)O)c4ccc(S(=O)(=O)O)cc4C3(C)C)/CCC2)=[N+](CCCCS(=O)(=O)[O-])c2ccc(S(=O)(=O)O)cc21 [Compound 32]	–	–	Kd [2]: 32 nM
CC1(C)C(/C=C/C2=C(Oc3ccc(C[C@H](NC(=O)[C@H](Cc4c[nH]c5ccccc45)NC(=O)CCCCCCCNC(=O)CC[C@H](NC(=O)N[C@@H](CCC(=O)O)C(=O)O)C(=O)O)C(=O)O)cc3)C(=C/C=C3/N(CCCCS(=O)(=O)O)c4ccc(S(=O)(=O)O)cc4C3(C)C)/CCC2)=[N+](CCCCS(=O)(=O)[O-])c2ccc(S(=O)(=O)O)cc21 [Compound 33]	–	–	Kd [2]: 16 nM
CC1(C)C(/C=C/C2=C(Oc3ccc(C[C@H](NC(=O)CCCCCCCNC(=O)[C@H](Cc4ccccc4)NC(=O)[C@H](Cc4ccccc4)NC(=O)CCCCCCCNC(=O)CC[C@H](NC(=O)N[C@@H](CCC(=O)O)C(=O)O)C(=O)O)C(=O)O)cc3)C(=C/C=C3/N(CCCCS(=O)(=O)O)c4ccc(S(=O)(=O)O)cc4C3(C)C)/CCC2)=[N+](CCCCS(=O)(=O)[O-])c2ccc(S(=O)(=O)O)cc21 [Compound 34]	–	–	Kd [2]: 34.9 nM
CC1(C)C(/C=C/C2=C(Oc3ccc(C[C@H](NC(=O)[C@H](Cc4ccccc4)NC(=O)CCCCCCCNC(=O)CC[C@H](NC(=O)N[C@@H](CCC(=O)O)C(=O)O)C(=O)O)C(=O)O)cc3)C(=C/C=C3/N(CCCCS(=O)(=O)O)c4ccccc4C3(C)C)/CCC2)=[N+](CCCCS(=O)(=O)[O-])c2ccccc21 [Compound 54]	–	–	Kd [3]: 2.6 nM
CN1/C(=C/C=C2\CCCC(/C=C/C3=[N+](C)c4ccccc4C3(C)C)=C2Oc2ccc(C[C@H](NC(=O)[C@H](Cc3ccccc3)NC(=O)CCCCCCCNC(=O)CC[C@H](NC(=O)N[C@@H](CCC(=O)O)C(=O)O)C(=O)O)C(=O)O)cc2)C(C)(C)c2ccccc21 [Compound 55]	–	very high affinity	Kd [3]: 7.3 nM
CN1/C(=C/C=C2\CCCC(/C=C/C3=[N+](C)c4ccc(S(=O)(=O)[O-])cc4C3(C)C)=C2Oc2ccc(C[C@H](NC(=O)[C@H](Cc3ccccc3)NC(=O)CCCCCCCNC(=O)CC[C@H](NC(=O)N[C@@H](CCC(=O)O)C(=O)O)C(=O)O)C(=O)O)cc2)C(C)(C)c2cc(S(=O)(=O)O)ccc21 [Compound 56]	–	very high affinity	Kd [3]: 3.7 nM
CC1(C)C(/C=C/C2=C(Oc3ccc(C[C@H](NC(=O)[C@H](Cc4ccccc4)NC(=O)CCCCCCCNC(=O)CC[C@H](NC(=O)N[C@@H](CCC(=O)O)C(=O)O)C(=O)O)C(=O)O)cc3)C(=C/C=C3/N(CCC[N+](C)(C)C)c4ccccc4C3(C)C)/CCC2)=[N+](CCC[N+](C)(C)C)c2ccccc21 [Compound 59]	–	–	Kd [3]: 60.9 nM
CC1(C)C(/C=C/C2=C(Oc3ccc(C[C@H](NC(=O)[C@H](Cc4ccccc4)NC(=O)CCCCCCCNC(=O)CC[C@H](NC(=O)N[C@@H](CCC(=O)O)C(=O)O)C(=O)O)C(=O)O)cc3)C(=C/C=C3/N(CCC[N+](C)(C)C)c4ccc(S(=O)(=O)O)cc4C3(C)C)/CCC2)=[N+](CCC[N+](C)(C)C)c2ccc(S(=O)(=O)O)cc21 [Compound 60]	–	–	Kd [3]: 5.4 nM
CC1(C)C(=CC=C2CCOC(C=CC3=[N+](CCCCS(=O)(=O)[O-])c4ccc(S(=O)(=O)O)cc4C3(C)C)=C2c2ccc(C(=O)NCCNC(=O)C(Cc3ccccc3)NC(=O)CCCCCCCNC(=O)CCC(NC(=O)NC(CCC(=O)O)C(=O)O)C(=O)O)cc2)N(CCCCS(=O)(=O)O)c2ccc(S(=O)(=O)O)cc21 (stereo not drawn) [Compound 62]	–	low affinity	–

Second part, led by results:

Kd [1] [nM]	affinity for PSMA (in words)	Structure (SMILES)	further results
17.2	–	CC1(C)C(/C=C/C2=C(Oc3ccc(C[C@H](NC(=O)CCCCCCCNC(=O)CCCCCCCNC(=O)CC[C@H](NC(=O)N[C@@H](CCC(=O)O)C(=O)O)C(=O)O)C(=O)O)cc3)C(=C/C=C3/N(CCCCS(=O)(=O)O)c4ccc(S(=O)(=O)O)cc4C3(C)C)/CCC2)=[N+](CCCCS(=O)(=O)[O-])c2ccc(S(=O)(=O)O)cc21 [Compound 9]	–
–	low affinity	CC1(C)C(=CC=C2CCCC(C=CC3=[N+](CCCCS(=O)(=O)[O-])c4ccccc4C3(C)C)=C2Oc2ccc(CC(NC(=O)C(CCCNC(=N)N)NC(=O)C(Cc3ccccc3)NC(=O)CCCCCCCNC(=O)CCC(NC(=O)NC(CCC(=O)O)C(=O)O)C(=O)O)C(=O)O)cc2)N(CCCCS(=O)(=O)O)c2ccccc21 (stereo not drawn) [Compound 65]	–
–	low affinity	CC1(C)C(=CC=C2CCCC(C=CC3=[N+](CCCCS(=O)(=O)[O-])c4ccccc4C3(C)C)=C2Oc2ccc(CC(NC(=O)C(CCCNC(=N)N)NC(=O)C(CCCNC(=N)N)NC(=O)CCCCCCCNC(=O)CCC(NC(=O)NC(CCC(=O)O)C(=O)O)C(=O)O)C(=O)O)cc2)N(CCCCS(=O)(=O)O)c2ccccc21 (stereo not drawn) [Compound 66]	–
